T1: cHuNAGS (linker-cleaved) (Homo sapiens, UniProt Q8N159)
T1 sequence (Q8N159 95-534): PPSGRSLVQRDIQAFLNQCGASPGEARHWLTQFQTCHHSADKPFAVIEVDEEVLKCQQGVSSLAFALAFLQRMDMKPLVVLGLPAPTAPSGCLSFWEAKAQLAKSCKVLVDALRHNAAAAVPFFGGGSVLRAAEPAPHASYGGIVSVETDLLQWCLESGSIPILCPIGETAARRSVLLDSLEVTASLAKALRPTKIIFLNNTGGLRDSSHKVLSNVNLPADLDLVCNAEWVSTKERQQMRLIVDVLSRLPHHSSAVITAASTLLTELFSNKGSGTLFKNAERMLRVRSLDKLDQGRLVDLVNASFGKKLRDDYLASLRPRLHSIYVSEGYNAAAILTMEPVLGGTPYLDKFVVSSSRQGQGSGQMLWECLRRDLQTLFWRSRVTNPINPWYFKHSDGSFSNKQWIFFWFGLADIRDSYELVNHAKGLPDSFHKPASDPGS


Key:
cHuNAGS (linker-cleaved) [1] = target: cHuNAGS (linker-cleaved) (Homo sapiens, UniProt Q8N159, V350I); test: biochemical
cHuNAGS (linker-cleaved) [2] = target: T1, cHuNAGS (linker-cleaved); test: biochemical
SEC = target: the molecule itself; test: SEC

cHuNAGS (linker-cleaved) (Homo sapiens, UniProt Q8N159, V350I), sequence (Q8N159 95-534 V350I): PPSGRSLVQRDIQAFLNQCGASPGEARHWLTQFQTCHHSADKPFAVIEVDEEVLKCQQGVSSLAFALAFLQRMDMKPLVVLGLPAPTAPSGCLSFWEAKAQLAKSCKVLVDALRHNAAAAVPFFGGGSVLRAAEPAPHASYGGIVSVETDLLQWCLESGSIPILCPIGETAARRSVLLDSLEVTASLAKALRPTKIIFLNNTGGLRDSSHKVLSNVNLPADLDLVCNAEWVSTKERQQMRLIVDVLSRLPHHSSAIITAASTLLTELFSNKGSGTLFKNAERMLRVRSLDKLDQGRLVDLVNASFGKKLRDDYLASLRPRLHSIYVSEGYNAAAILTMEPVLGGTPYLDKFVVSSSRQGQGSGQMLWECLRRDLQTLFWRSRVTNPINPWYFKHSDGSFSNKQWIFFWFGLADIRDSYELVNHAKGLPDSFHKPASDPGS

| Molecule | EC50 (cHuNAGS (linker-cleaved) [1]) [mM] | EC50 (cHuNAGS (linker-cleaved) [2]) [µM] | binding result (SEC) |
| --- | --- | --- | --- |
| N=C(N)NCCC[C@H](N)C(=O)O [arginine] | > 4 | ~20 |  |
| His6-MBP-cHuNAGS chimera (wild-type) (domain or fragment, human) LEVLFQGPMPPSGRSLVQRDIQAFLNQCGASPGEARHWLTQFQTCHHSADKPFAVIEVDEEVLKCQQGVSSLAFALAFLQRMDMKPLVVLGLPAPTAPSGCLSFWEAKAQLAKSCKVLVDALRHNAAAAVPFFGGGSVLRAAEPAPHASYGGIVSVETDLLQWCLESGSIPILCPIGETAARRSVLLDSLEVTASLAKALRPTKIIFLNNTGGLRDSSHKVLSNVNLPADLDLVCNAEWVSTKERQQMRLIVDVLSRLPHHSSAVITAASTLLTELFSNKGSGTLFKNAERMLRVRSLDKLDQGRLVDLVNASFGKKLRDDYLASLRPRLHSIYVSEGYNAAAILTMEPVLGGTPYLDKFVVSSSRQGQGSGQMLWECLRRDLQTLFWRSRVTNPINPWYFKHSDGSFSNKQWIFFWFGLADIRDSYELVNHAKGLPDSFHKPASDPGS |  |  | binds |
